From PubChem BioAssay (NCI) come the findings set out here.

Common to all, as to test: NCI-60 cell line screen, 48 h
In test [1] the test system is BT-549 breast.
Test [2] deals with HOP-92 NSCLC.
The test system of test [3] is U251 CNS.
In test [4] the test system is NCI-H522 lung.
Test [5] concerns HT29 colon.
In test [6] the test system is RPMI-8226 leukemia.
Test [7] deals with OVCAR-5 ovarian.
Test [8] has as its system UO-31 renal.
The test system of test [9] is T-47D breast.
Test [10] has as its system ACHN renal.

Values joined by “and” are separate entries in the source; they are usually repeats but may differ in a detail not shown here. Equal entries are not always repeated.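 All cell lines were grown in 96-well plates and treated with compound for 48 hours. Here, GI50 denotes the concentration required for 50% inhibition of growth. TGI denotes the concentration required for complete inhibition of growth.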

Consider `CN(C)C[C@H]1CC[C@@H](CN(C)C)C1=O`, for which the TGI was 14.1 µM in [1]; 20.5 µM in [2]; greater than 40.4 µM in test [3]; 0.686 µM and 1.18 µM in test [4]; 21.1 µM in test [5]; greater than 12.9 µM in test [6]. For the same compound, the TGI in test [7] stood at 16.3 µM; in test [8], 23.1 µM; in test [9] it was 23.6 µM; in test [10], 15.1 µM. Besides, the results for the GI50 in test [4] and in test [6] were 0.269 µM and 1.17 µM, respectively.

For `C/C(=N\NC(N)=O)C(CN1CCCCC1)C(c1ccccc1)c1c(O)c2ccccc2oc1=O` (stereo not given), the GI50 in test [1] was 86.7 µM; in test [2] it was 21.6 µM; in [9], greater than 100 µM. Besides, the TGI in test [1], in [2], in test [3], in test [4], in [5] and in test [6] was greater than 100 µM each time. Also, the TGI in test [7], in test [8], in test [9] and in test [10] was greater than 100 µM each time.

Consider `O=C1/C(=C/c2ccccc2)CCc2ccc(Cl)nc21`, for which the TGI in test [1] was found to be 32.1 µM; in test [2], 38.8 µM; in test [3], 16 µM; in test [4] it was 10.4 µM; in test [5], 3.78 µM; in [6] it was 7.88 µM. Also, the TGI in [7] stood at 33.4 µM; in test [8], 20.2 µM; in test [9] it was 18.6 µM; in test [10] it was 27.4 µM.

In the case of `Cc1cccc(C(C)(C)C)c1NC(=O)/C(Cc1nc2ccc([N+](=O)[O-])cc2[nH]c1=O)=N/NC(=O)C[N+](C)(C)C`, the TGI in test [1], in [2], in test [3], in [4], in test [5] and in test [6] was greater than 100 µM each time. For the same compound, the TGI in test [7], in test [8], in test [9] and in [10] was greater than 100 µM in each case.

In the case of `CC(CCC(=O)O)[C@H]1CCC2[C@H]3C(CC[C@@]21C)[C@@]1(C)CCC(O)C[C@H]1C[C@@H]3O` (stereo not given in full), the TGI in test [1], in test [2], in test [3], in [4], in test [5] and in test [6] was greater than 100 µM each time. For the same compound, the TGI in test [7], in [8], in test [9] and in test [10] was greater than 100 µM throughout.

In the case of `C/C(O)=C(\C=N\C(N)=S)C(=O)Nc1ccccc1C`, the TGI in [1], in [2], in test [3], in [4], in test [5] and in test [6] was greater than 100 µM in each case. The TGI in test [7], in test [8], in test [9] and in test [10] was greater than 100 µM throughout.

On to `CCOC(=O)c1ccc2nc(NC(=O)COC(=O)CSc3nc(C)cc(C)n3)sc2c1`, for which the TGI in test [1], in test [2], in test [3], in test [4], in test [5] and in [6] was greater than 100 µM in each case. Also, the TGI in test [7] is 86.1 µM; in test [8] it was 38.5 µM; in test [9] it was 63.6 µM; in test [10], greater than 100 µM.

For `Cc1cc(S(=O)(=O)Nc2nnc3c(C(F)(F)F)cc(Cl)cn23)c(S)cc1Cl`, the TGI in [1], in test [2], in test [3], in test [4], in test [5] and in test [6] was greater than 100 µM throughout. Also, the TGI in test [7], in [8], in [9] and in [10] was greater than 100 µM each time.

`CCC1(CC)C(=O)CC[C@@]2(C)C1=CC[C@H]1[C@@H]3CC[C@H](O)[C@@]3(C)CC[C@@H]12`: the TGI in [1] is greater than 100 µM; in test [2], greater than 100 µM; in test [3], 33.9 µM; in test [4], 78.6 µM; in test [5], 28.5 µM; in test [6] it was 32.4 µM. The TGI was greater than 100 µM in test [7], 34.7 µM in test [8], 99.7 µM in [9] and greater than 100 µM in test [10].

Take `Cc1ccc(C(=O)N(C(C)C)C(C)C)cc1N=NN(C)C`: the TGI in test [1] was greater than 100 µM; in test [2], greater than 100 µM; in [3], greater than 100 µM; in test [4] it was 43.2 µM; in [5], greater than 100 µM; in test [6] it was greater than 100 µM. The TGI in test [7], in test [8], in test [9] and in test [10] was greater than 100 µM in each case.

For `CCCn1c(C23CC4CC(CC(C4)C2)C3)nc2ccc(Cl)cc2c1=O`, the TGI in [1] was greater than 100 µM; in test [2], greater than 100 µM; in test [3], greater than 100 µM; in test [4], greater than 100 µM; in test [5] it was 80.2 µM; in test [6] it was greater than 100 µM. Besides, the TGI is greater than 100 µM in test [7], 39.5 µM in [8], greater than 100 µM in test [9] and 47.9 µM in test [10].

Regarding `S=C(N/N=C\C=N/NC(=S)N1CCCCCC1)N1CCCCCC1`, the TGI in test [1], in [2], in [3], in [4], in [5] and in [6] was greater than 100 µM in each case. Moreover, the TGI in test [7] is greater than 100 µM; in [8] it was greater than 100 µM; in [9], 21.8 µM; in [10], greater than 100 µM.

Consider `C=CCC(CNC(=O)OCc1ccccc1)O[Si](C)(C)C(C)(C)C` (stereo not given), for which the TGI was greater than 100 µM in test [1]; greater than 100 µM in test [2]; 79.5 µM in [3]; 64.8 µM in test [4]; 59.1 µM in test [5]; 64.9 µM in test [6]. In addition, the TGI is 71.6 µM in [7], 63.1 µM in [8], greater than 100 µM in test [9] and greater than 100 µM in test [10].
